These are literature values, as cited in US12618855B2, “Serum protein biomarker panel for idiopathic pulmonary fibrosis” (Children's Hospital Medical Center, priority 2019, dated 2026).

Molecules are shown by their SMILES.

This data set addresses p110β (Homo sapiens, UniProt P42338). The conditions noted are these: p110β compared with p110α, p110-γ and p110-δ (equipotent).

Chain of p110β (P42338 whole entry, species assumed): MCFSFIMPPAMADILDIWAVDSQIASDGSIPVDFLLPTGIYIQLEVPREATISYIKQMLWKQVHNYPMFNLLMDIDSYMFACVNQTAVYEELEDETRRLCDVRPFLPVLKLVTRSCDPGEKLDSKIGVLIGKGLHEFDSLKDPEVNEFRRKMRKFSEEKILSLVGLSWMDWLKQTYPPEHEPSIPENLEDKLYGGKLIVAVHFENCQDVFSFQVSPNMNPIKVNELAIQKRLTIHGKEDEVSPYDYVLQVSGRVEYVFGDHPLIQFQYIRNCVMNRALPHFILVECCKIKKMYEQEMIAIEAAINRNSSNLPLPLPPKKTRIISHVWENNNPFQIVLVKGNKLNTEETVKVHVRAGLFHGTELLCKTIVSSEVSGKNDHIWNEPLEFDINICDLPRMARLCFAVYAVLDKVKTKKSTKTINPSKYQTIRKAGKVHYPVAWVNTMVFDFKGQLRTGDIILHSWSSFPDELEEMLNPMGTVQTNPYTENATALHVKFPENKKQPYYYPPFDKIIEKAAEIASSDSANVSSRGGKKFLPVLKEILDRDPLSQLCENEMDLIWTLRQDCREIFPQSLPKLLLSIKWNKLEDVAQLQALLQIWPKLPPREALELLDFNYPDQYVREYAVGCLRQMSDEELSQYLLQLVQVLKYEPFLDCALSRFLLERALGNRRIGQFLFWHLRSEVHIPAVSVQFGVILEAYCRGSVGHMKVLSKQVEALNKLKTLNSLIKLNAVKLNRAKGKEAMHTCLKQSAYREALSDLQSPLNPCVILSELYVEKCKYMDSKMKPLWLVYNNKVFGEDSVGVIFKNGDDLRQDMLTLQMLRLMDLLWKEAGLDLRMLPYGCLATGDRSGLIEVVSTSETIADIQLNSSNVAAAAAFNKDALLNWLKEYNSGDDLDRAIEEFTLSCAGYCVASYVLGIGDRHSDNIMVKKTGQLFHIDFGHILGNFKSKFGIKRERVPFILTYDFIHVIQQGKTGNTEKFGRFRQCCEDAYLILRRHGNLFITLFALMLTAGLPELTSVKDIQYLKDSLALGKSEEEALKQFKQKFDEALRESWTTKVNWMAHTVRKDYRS
Chain of p110β (P27986 whole entry partner, species assumed): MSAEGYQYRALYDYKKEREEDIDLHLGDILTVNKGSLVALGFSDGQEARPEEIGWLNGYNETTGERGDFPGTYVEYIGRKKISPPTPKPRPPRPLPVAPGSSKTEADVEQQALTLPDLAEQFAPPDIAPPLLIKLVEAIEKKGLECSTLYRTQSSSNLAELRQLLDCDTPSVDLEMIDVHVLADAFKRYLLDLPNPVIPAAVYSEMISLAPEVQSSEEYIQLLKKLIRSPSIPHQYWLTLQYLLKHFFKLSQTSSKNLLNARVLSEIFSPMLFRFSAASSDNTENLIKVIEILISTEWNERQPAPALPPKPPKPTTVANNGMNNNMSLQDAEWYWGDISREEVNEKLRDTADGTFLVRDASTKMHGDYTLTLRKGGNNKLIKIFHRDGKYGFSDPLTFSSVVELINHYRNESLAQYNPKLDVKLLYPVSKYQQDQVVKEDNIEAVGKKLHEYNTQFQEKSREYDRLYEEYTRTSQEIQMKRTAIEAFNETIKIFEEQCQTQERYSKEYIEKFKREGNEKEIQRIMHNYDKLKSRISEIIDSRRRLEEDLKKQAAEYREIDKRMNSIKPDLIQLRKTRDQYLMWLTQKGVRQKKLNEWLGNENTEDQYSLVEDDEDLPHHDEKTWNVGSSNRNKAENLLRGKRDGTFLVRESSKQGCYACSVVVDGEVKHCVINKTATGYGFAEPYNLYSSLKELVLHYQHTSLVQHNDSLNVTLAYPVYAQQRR

In the case of `Cc1nc(-c2cn3c(n2)-c2ccc(-c4cnn(C(C)(C)C(N)=O)c4)cc2OCC3)n(C(C)C)n1` [Taselisib], the “lower potency of p110β inhibition” value is 30 fold.
